These results are taken from patent US20050124696A1, “Pharmaceutical compositions” (priority 2001, published 2005).

One data set has as its system HSF. The data set can be described thus: hsp70 promoter luciferase reporter assay in HeLa cell clone 13B (HSF activation). It is filed as cell-based, human. As to conditions: HeLa clone 13B, 8 h treatment. The protocol: (§1) Method: HeLa cell clone 13B, stably transfected with a luciferase reporter plasmid controlled by the human hsp70 promoter, and HeLa κB-transformed cells, stably transfected with a luciferase reporter plasmid controlled by a synthetic NF-κB-STM construct, were maintained in DMEM medium supplemented with 10% FBS, L-glutamine (2 mM) and G418 (250 μg/ml) at 37° C. in a 5% CO2 humidified atmosphere.
(§2) Cells were seeded at a density of 4×10^4 cells/well in 96-well plates. After 18-20 h, the medium was removed and cells were treated for 8 h with the test compounds (100 μl) at the appropriate dilutions in serum-free medium. For the NF-κB-dependent reporter gene assay, cells were stimulated with TPA (25 ng/ml) 2h after exposure to the compounds.
(§3) After incubation, the medium was removed and cells were lysed in 10 μl of lysis buffer. The luciferase activity was determined by adding 100 μl of substrate and measuring the release of light using a Victor 1420 microplate reader (Wallac, Finland).
The AC200/μM for HSF is the concentration at which the tested compound doubled the HSF activity in this assay. The IC50/μM for NF-κB is the concentration at which the tested compound halved the NF-κB activity in this assay.
Background: In a reporter assay the amount or activity of a reporter protein is the signal.

The test system of the next data set is 37RC cells. The experiment in a line: Neutral Red cell viability assay. It is filed as cell-based, monkey. Particulars: uninfected 37RC cells, 24 h. The protocol: Cell viability was determined using the Neutral Red assay. 37RC cells were seeded at density of 6×10^4 cells/well in 24-well plates and incubated for 24 h. Confluent 37RC monolayers were treated with the test compounds at different dilutions for 24 h at 37° C. After incubation, the medium was removed and the cells were incubated with RPM1 medium containing 40 μg/ml Neutral Red dye (500 μl/well). After 2 h at 37° C., the monolayers were washed with phosphate-buffered saline (PBS) and then with a solution containing 1% CaCl2 and 0.5% formaldehyde. After washing, a solution containing 1% acetic acid/50% ethanol was added to the monolayers (250 μl/well). After 10 min at room temperature, the absorbance was determined with a microplate reader (Victor 1420, Wallac) at 540 nm.

The nature of another data set: in vitro. Particulars: human. It counts as cell-based. Here is the method: HeLa cells were plated in 96-well microtiter plates in 100 μl culture medium (4×10^4/well). After 20 hours, the cells were exposed to the test compounds at different dilutions and incubated for the next 8 h at 37° C. in a 5% CO2 humidified atmosphere. After 6 h incubation, the Alamar Blue was added in an amount equal to 10% of the culture volume (10 μl). Two hours after the addition of the Alamar Blue, the fluorescence was measured using a Victor 1420 microplate reader.
The LC50/μM is the concentration at which the tested compound killed half the cells in this assay.

The subject of the next data set is Sendai virus. The experiment in a line: Replication of Sendai virus in 37RC cells (HAU titration of virus yield). It counts as cell-based. As to conditions: Respirovirus muris, Sendai virus yield at 24 hours after infection, read-out: ID50 (50% inhibitory dose/concentration).
Data set [1] deals with NF-κB. The experiment in a line: NF-κB-dependent luciferase reporter gene assay in HeLa κB-transformed cells, TPA stimulated. It counts as cell-based. As to conditions: Homo sapiens; HeLa NF-κB-STM luciferase, 8 h treatment, TPA 25 ng/ml 2 h after exposure; read-out: NF-κB; IC50 (concentration at which the tested compound halved the NF-κB activity). The protocol:
as §1, §2, §3
The fragment Kpn I-BamH I from the pGL3 basic vector containing the luciferase gene (PROMEGA) was inserted in the pcDNA3 vector (INVITROGEN) digested with Bgl II-KpnI. (This digestion removes the CMV-promoter from pcDNA3.) The resulting new vector was digested with Kpn I-Hind III and a promoter containing a ‘5×NF-κB binding sites—TATA box’ sequence was inserted upstream of the luciferase gene. […]

For data set [2], the system named is NF-κB. The data set can be described thus: Luciferase activity of resistant HeLa NF-κB-LUC cell pool after stimulation. It is filed as cell-based, human. As to conditions: quadruplicate samples, control 1369±149. An excerpt: The fragment Kpn I-BamH I from the pGL3 basic vector containing the luciferase gene (PROMEGA) was inserted in the pcDNA3 vector (INVITROGEN) digested with Bgl II-KpnI. (This digestion removes the CMV-promoter from pcDNA3.) The resulting new vector was digested with Kpn I-Hind III and a promoter containing a ‘5×NF-κB binding sites—TATA box’ sequence was inserted upstream of the luciferase gene. This vector has been named STM.
To obtain stable HeLa cell lines expressing the luciferase gene under the control of NF-κB, HeLa cells were transfected (using lipofectamine plus GIBCO) with the STM-Pvu I linearized vector, and selected for 20 days with G418 (800 μg/ml). After selection, the resistant HeLa cell pool was controlled (in quadruplicate samples) for luciferase activity after stimulation with TNFα, IL-1 and TPA. The respective luciferase activities were: • 1) Control: 1369±149 • 2) TNFα: 6111±1231 • 3) IL-1: 11814±1151 • 4) TPA: 7181±444 Clones were selected.

The subject of the next data set is uninfected cells. The data set can be described thus: Toxicity to uninfected cells compared with the anti-viral concentration. It is filed as cell-based.
In data set [3] the test system is NF-κB. As to conditions: chemical or physiological inducers; 'at the same concentration'; cited from earlier work.
The test system of another data set is HSF1. Particulars: cited from earlier work.

Bounds are passed on as bounds.

For orientation: CC50 means the concentration giving 50% cytotoxicity.

For the molecule `COC(=O)[C@H](CS[C@H]1CC(=O)CC[C@@H]1O[Si](C)(C)C(C)(C)C)NC(=O)OC(C)(C)C` [CTM-68, 2-tert-Butoxycarbonylamino-3-[2-(tert-butyl-dimethyl-silanyloxy)-5-oxo-cyclohexylsulfanyl]-propionic acid methyl ester], the “HSF; AC200 (concentration at which the tested compound doubled the HSF activity)” value in the data set with HSF is 98 µM. In the data set with 37RC cells, the “LD50 (50% lethal dose/concentration)” value stood at 9.8 µM. In “in vitro”, the CC50 at 8 h was more than 800000 nM. Moreover, the IC50 in the data set with Sendai virus came to 1000 nM; with NF-κB [1], 17000 nM.

For TNFα, the “luciferase activity after stimulation” value with NF-κB [2] is 6111±1231.

`CC(C)(C)[Si](C)(C)OC1C=CC(=O)CC1` (stereo not drawn) [Compound A, 4-tert-butyldimethylsilyloxy-cyclohex-2-en-1-one]: in the data set on uninfected cells, the “concentration of anti-viral effect relative to the concentration toxic to uninfected cells” value is “below that at which they were toxic to uninfected cells”. Also, the IC50 with Sendai virus amounted to 1000 nM.

In the case of `O=C1C=CCC1` [cyclopent-2-en-1-one], the “concentration shown to block NF-κB activation” value with NF-κB [3] is 125 to 500 µM. The “concentration shown to activate HSF1 and trigger synthesis of HSP70” value with HSF1 is 125 to 500 µM.

Turning to `CCCCCCCCCCCCCC(=O)O[C@@H]1[C@@H](C)[C@@]2(O)[C@@H](C=C(CO)C[C@]3(O)C(=O)C(C)=C[C@@H]23)[C@@H]2C(C)(C)[C@]12OC(C)=O` [TPA, 12-O-tetradecanoylphorbol-13-acetate], in the data set on NF-κB [2], the “luciferase activity after stimulation” value amounted to 7181±444.

Consider `COC(=O)C(CSC1CC(=O)CC(O[Si](C)(C)C(C)(C)C)C1)NC(=O)OC(C)(C)C` (stereo not drawn) [CTM-78, 2-tert-Butoxycarbonylamino-3-[3-(tert-butyl-dimethyl-silanyloxy)-5-oxo-cyclohexylsulfanyl]-propionic acid methyl ester], for which the “HSF; AC200 (concentration at which the tested compound doubled the HSF activity)” value in the data set with HSF was determined as 45 µM. Moreover, in the data set with 37RC cells, the “LD50 (50% lethal dose/concentration)” value was 18.6 µM. For the same molecule, the CC50 at 8 h in the data set “in vitro” is more than 800000 nM. Also, the values for the IC50 in the data set on Sendai virus and with NF-κB [1] were 3000 nM and 22000 nM, respectively.

As for `CC(C)(C)[Si](C)(C)OC1CC=CC(=O)C1` (stereo not drawn) [Compound B, 5-tert-butyldimethylsilyloxy-cyclohex-2-en-1-one], the “concentration of anti-viral effect relative to the concentration toxic to uninfected cells” value in the data set with uninfected cells is recorded as “below that at which they were toxic to uninfected cells”. Also, the IC50 in the data set with Sendai virus turned out to be 400 nM.
